Results: ChEMBL document CHEMBL3875150, “Biological evaluation of some new N-(2,6-dimethoxypyrimidinyl) thioureido benzenesulfonamide derivatives as potential antimicrobial and anticancer agents” (Eur J Med Chem, 2016)
Values after ≈ are worked out from the molar mass of the structure shown.

How the values were obtained:
[1] = (§1) Cytotoxicity against human MCF7 cells assessed as decrease in cell viability after 24 hrs by MTT assay; type: functional, cell-based; conditions: MCF7, 24 h
MCF7 = test: as §1; type: functional, cell-based
Pseudomonas aeruginosa [2] = test: Antibacterial activity against Pseudomonas aeruginosa RCMB 010043 assessed as diameter of inhibition zone at 1 mg/mL after 24 to 48 hrs by agar well diffusion method; type: functional; conditions: read-out: DIZ
Escherichia coli [3] = test: Antibacterial activity against Escherichia coli RCMB 010052 assessed as diameter of inhibition zone at 1 mg/mL after 24 to 48 hrs by agar well diffusion method; type: functional; conditions: read-out: DIZ
Bacillus subtilis [4] = test: Antibacterial activity against Bacillus subtilis RCMB 010067 after 24 to 48 hrs by agar well diffusion method; type: functional
Streptococcus pneumoniae [5] = test: Antibacterial activity against Streptococcus pneumoniae RCMB 010010 assessed as diameter of inhibition zone at 1 mg/mL after 24 to 48 hrs by agar well diffusion method; type: functional; conditions: read-out: DIZ
Streptococcus pneumoniae [6] = test: Antibacterial activity against Streptococcus pneumoniae RCMB 010010 after 24 to 48 hrs by agar well diffusion method; type: functional
Bacillus subtilis [7] = test: Antibacterial activity against Bacillus subtilis RCMB 010067 assessed as diameter of inhibition zone at 1 mg/mL after 24 to 48 hrs by agar well diffusion method; type: functional; conditions: read-out: DIZ
Candida albicans [8] = test: Antifungal activity against Candida albicans RCMB 005036 assessed as diameter of inhibition zone at 1 mg/mL after 24 to 48 hrs by agar well diffusion method; type: functional; conditions: read-out: DIZ
Aspergillus fumigatus [9] = test: Antifungal activity against Aspergillus fumigatus RCMB 002568 assessed as diameter of inhibition zone at 1 mg/mL after 48 hrs by agar well diffusion method; type: functional; conditions: RCMB 002568, 48 h, read-out: DIZ
Aspergillus fumigatus [10] = test: Antifungal activity against Aspergillus fumigatus RCMB 002568 after 24 to 48 hrs by agar well diffusion method; type: functional
Candida albicans [11] = test: Antifungal activity against Candida albicans RCMB 005036 after 24 to 48 hrs by agar well diffusion method; type: functional
Pseudomonas aeruginosa [12] = test: Antibacterial activity against Pseudomonas aeruginosa RCMB 010043 after 24 to 48 hrs by agar well diffusion method; type: functional
Escherichia coli [13] = test: Antibacterial activity against Escherichia coli RCMB 010052 after 24 to 48 hrs by agar well diffusion method; type: functional

SMILES	IC50 [1] [µg/mL]	Activity (MCF7)	zone of inhibition at 1000 µg/mL (Pseudomonas aeruginosa [2]) [mm]	zone of inhibition at 1000 µg/mL (Escherichia coli [3]) [mm]	MIC (Bacillus subtilis [4]) [µg/mL]	zone of inhibition at 1000 µg/mL (Streptococcus pneumoniae [5]) [mm]	MIC (Streptococcus pneumoniae [6]) [µg/mL]	zone of inhibition at 1000 µg/mL (Bacillus subtilis [7]) [mm]	zone of inhibition at 1000 µg/mL (Candida albicans [8]) [mm]	zone of inhibition at 1000 µg/mL (Aspergillus fumigatus [9]) [mm]	MIC (Aspergillus fumigatus [10]) [µg/mL]	MIC (Candida albicans [11]) [µg/mL]	MIC (Pseudomonas aeruginosa [12]) [µg/mL]	MIC (Escherichia coli [13]) [µg/mL]
COc1cc(NS(=O)(=O)c2ccc(NC(=S)Nc3nnc(C)c(C)n3)cc2)nc(OC)n1	44.8 (≈ 94 µM)	Dose-dependent effect												
COc1cc(NS(=O)(=O)c2ccc(NC(=S)Nc3nccc4ccccc34)cc2)nc(OC)n1	> 200	Dose-dependent effect												
O=C(O)c1cn(C2CC2)c2cc(N3CCNCC3)c(F)cc2c1=O [CIPROFLOXACIN]			21.3	25.8	0.1 (≈ 0.302 µM)	22.4	0.98 (≈ 2.96 µM)	27.2						
COc1cc(NS(=O)(=O)c2ccc(NC(=S)Nc3ccc4c(c3)oc(=O)c3ccccc34)cc2)nc(OC)n1	40.3 (≈ 71.5 µM)	Dose-dependent effect		7.8					13.1	14.2				
COc1cc(NS(=O)(=O)c2ccc(NC(=S)Nc3cc(=O)n(C)c(=O)n3C)cc2)nc(OC)n1	96.1 (≈ 189 µM)	Dose-dependent effect	8.1	19.1	3.9 (≈ 7.68 µM)	17.9	7.81 (≈ 15.4 µM)	18.5	13.8	15.7	62.5 (≈ 123 µM)	125 (≈ 246 µM)	500 (≈ 985 µM)	3.9 (≈ 7.68 µM)
COc1cc(NS(=O)(=O)c2ccc(NC(=S)Nc3cccc4nsnc34)cc2)nc(OC)n1	> 200	Dose-dependent effect	11.7	24.2	0.98 (≈ 1.95 µM)	22.7	1.95 (≈ 3.87 µM)	26.3	20.4	22.3	1.95 (≈ 3.87 µM)	3.9 (≈ 7.74 µM)	250 (≈ 496 µM)	0.98 (≈ 1.95 µM)
CCSc1nnc(NC(=S)Nc2ccc(S(=O)(=O)Nc3cc(OC)nc(OC)n3)cc2)s1	119 (≈ 232 µM)	Dose-dependent effect							12.5	14.3				
COc1cc(NS(=O)(=O)c2ccc(NC(=S)Nc3ccncc3)cc2)nc(OC)n1	168 (≈ 376 µM)	Dose-dependent effect		13.2	62.5 (≈ 140 µM)	15.3	62.5 (≈ 140 µM)	15.9	13.9	15.6	62.5 (≈ 140 µM)	125 (≈ 280 µM)	> 1000	125 (≈ 280 µM)
COc1cc(NS(=O)(=O)c2ccc(NC(=S)Nc3nc(C)cc(C)n3)cc2)nc(OC)n1	82.9 (≈ 174 µM)	Dose-dependent effect												
CCn1c2ccccc2c2cc(NC(=S)Nc3ccc(S(=O)(=O)Nc4cc(OC)nc(OC)n4)cc3)ccc21	143 (≈ 254 µM)	Dose-dependent effect							12.1	10.3				
COc1cc(NS(=O)(=O)c2ccc(NC(=S)Nc3nc4cc(C)c(C)cc4s3)cc2)nc(OC)n1	93.9 (≈ 177 µM)	Dose-dependent effect	10.3	26.3	0.98 (≈ 1.85 µM)	22.7	1.95 (≈ 3.67 µM)	25.3	21.4	23.3	1.95 (≈ 3.67 µM)	3.9 (≈ 7.35 µM)	250 (≈ 471 µM)	0.98 (≈ 1.85 µM)
COc1cc(NS(=O)(=O)c2ccc(NC(=S)Nc3c(C)n(C)n(-c4ccccc4)c3=O)cc2)nc(OC)n1	113 (≈ 203 µM)	Dose-dependent effect							12.6	13.6				
COc1cc(NS(=O)(=O)c2ccc(NC(=S)Nc3cccnc3)cc2)nc(OC)n1	170 (≈ 380 µM)	Dose-dependent effect												
COc1cc(NS(=O)(=O)c2ccc(NC(=S)Nc3nc4ccc([N+](=O)[O-])cc4s3)cc2)nc(OC)n1	9.43 (≈ 17.2 µM)	Dose-dependent effect		13.3	125 (≈ 228 µM)	13.3	125 (≈ 228 µM)	14.1	10.8	11.7	250 (≈ 457 µM)	250 (≈ 457 µM)	> 1000	125 (≈ 228 µM)
COc1cc(NS(=O)(=O)c2ccc(NC(=S)Nc3cnccn3)cc2)nc(OC)n1	> 200	Dose-dependent effect	18.3	28.7	0.98 (≈ 2.19 µM)	25.8	0.98 (≈ 2.19 µM)	26.4	23.4	24.9	0.98 (≈ 2.19 µM)	1.95 (≈ 4.36 µM)	62.5 (≈ 140 µM)	0.49 (≈ 1.09 µM)
COc1cc(NS(=O)(=O)c2ccc(NC(=S)Nc3cc(=O)[nH]c(=O)[nH]3)cc2)nc(OC)n1	37.3 (≈ 77.8 µM)	Dose-dependent effect	8.5	24.3	0.98 (≈ 2.04 µM)	22.3	1.95 (≈ 4.07 µM)	26.1	20.1	21.3	3.9 (≈ 8.13 µM)	3.9 (≈ 8.13 µM)	500 (≈ 1040 µM)	0.98 (≈ 2.04 µM)
COc1cc(NS(=O)(=O)c2ccc(NC(=S)Nc3ccc4c(C)cc(=O)oc4c3)cc2)nc(OC)n1	35.2 (≈ 66.7 µM)	Dose-dependent effect	10.6	23.4	1.95 (≈ 3.7 µM)	20.6	3.9 (≈ 7.39 µM)	23.4	18.1	20.3	3.9 (≈ 7.39 µM)	7.81 (≈ 14.8 µM)	125 (≈ 237 µM)	1.95 (≈ 3.7 µM)
C[C@@H]1[C@H](O)[C@@H](C)/C=C/C=C/C=C/C=C/C=C/C=C/C=C/[C@H](O[C@@H]2O[C@H](C)[C@@H](O)[C@H](N)[C@@H]2O)C[C@@H]2O[C@](O)(C[C@@H](O)C[C@@H](O)[C@H](O)CC[C@@H](O)C[C@@H](O)CC(=O)O[C@H]1C)C[C@H](O)[C@H]2C(=O)O [AMPHOTERICIN B]									25.4	23.7	1.95 (≈ 2.11 µM)	3.9 (≈ 4.22 µM)		
O=c1[nH]cc(F)c(=O)[nH]1 [FLUOROURACIL]	4.8 (≈ 36.9 µM)	Dose-dependent effect												
